{"source": "patent US20200016159A1", "about": "“N3-CYCLICALLY SUBSTITUTED THIENOURACILS AND USE THEREOF” (Bayer Aktiengesellschaft, priority 2016, published 2020)", "data": [{"biological_target": "T1, human adenosine A2b receptor (Homo sapiens, UniProt P29275)", "T1 sequence (P29275 1-332)": "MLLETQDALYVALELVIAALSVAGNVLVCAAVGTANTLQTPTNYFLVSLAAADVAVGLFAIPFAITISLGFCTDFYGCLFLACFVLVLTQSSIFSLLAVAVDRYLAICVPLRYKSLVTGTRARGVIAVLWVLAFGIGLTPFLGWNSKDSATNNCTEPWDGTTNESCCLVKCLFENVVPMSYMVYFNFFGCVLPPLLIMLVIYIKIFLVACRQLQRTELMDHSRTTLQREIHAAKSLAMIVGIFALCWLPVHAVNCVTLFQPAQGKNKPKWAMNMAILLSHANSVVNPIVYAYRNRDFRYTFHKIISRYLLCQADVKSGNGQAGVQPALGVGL", "test": "Cellular in vitro reporter gene test for A2b receptor activity (antagonism of NECA)", "assay_type": "cell-based", "design": "expressed in transfected cells; host or cells: CHO-K1 (Chinese hamster ovary) with CRE-luciferase reporter", "settings": "recombinant CHO-K1 cells, CRE-luciferase reporter, co-incubation with EC50 concentration of NECA, 3 hours", "in_short": "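Antagonism measured as block of NECA-induced, cAMP/CRE-dependent luciferase expression in recombinant A2b CHO-K1 cells. NECA used at the EC50 set in a pre-experiment on each test day; luminescence detected after 3 h. Reported as IC50, partly averaged and rounded to two significant figures.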", "units": {"IC50": "µM"}, "values": [{"molecule": "Cc1c(Cn2cc[nH]c2=O)sc2c1c(=O)n(C1CC1C)c(=O)n2CCOC(F)(F)F", "note": "(single isomer, unassigned) [Example 271, 5-Methyl-3-(2-methylcyclopropyl)-6-[(2-oxo-2,3-dihydro-1H-imidazol-1-yl)methyl]-1-[2-(trifluoromethoxy)ethyl]thieno[2,3-d]pyrimidine-2,4(1H,3H)-dione]", "IC50": 0.0014}, {"molecule": "Cc1c(CN2CCNC2=O)sc2c1c(=O)n(C1CC1C)c(=O)n2CCSC(F)(F)F", "note": "(single isomer, unassigned) [Example 281, 5-Methyl-3-(2-methylcyclopropyl)-6-[(2-oxoimidazolidin-1-yl)methyl]-1-{2-[(trifluoromethyl)sulfanyl]ethyl}thieno[2,3-d]pyrimidine-2,4(1H,3H)-dione]", "IC50": 0.0021}, {"molecule": "Cc1c(Cn2nc[nH]c2=O)sc2c1c(=O)n(C1(C)CC1)c(=O)n2CC1CCC1", "note": "[Example 62, 1-(Cyclobutylmethyl)-5-methyl-3-(1-methylcyclopropyl)-6-[(5-oxo-4,5-dihydro-1H-1,2,4-triazol-1-yl)methyl]thieno[2,3-d]pyrimidine-2,4(1H,3H)-dione]", "IC50": 0.065}, {"molecule": "CCCn1c(=O)n([C@H]2C[C@@H]2C)c(=O)c2c(C)c(Cn3nc[nH]c3=O)sc21", "note": "[Example 317, 5-Methyl-3-[(1S,2S)-2-methylcyclopropyl]-6-[(5-oxo-4,5-dihydro-1H-1,2,4-triazol-1-yl)methyl]-1-propylthieno[2,3-d]pyrimidine-2,4(1H,3H)-dione]", "IC50": 0.019}, {"molecule": "Cc1c(Cn2cc[nH]c2=O)sc2c1c(=O)n(C1CC1)c(=O)n2CC1CCCO1", "note": "(single isomer, unassigned) [Example 47, 3-Cyclopropyl-5-methyl-6-[(2-oxo-2,3-dihydro-H-imidazol-1-yl)methyl]-1-(tetrahydrofuran-2-ylmethyl)thieno[2,3-d]pyrimidine-2,4(1H,3H)-dione]", "IC50": 0.14}, {"molecule": "COCCn1c(=O)n(C2CC2C(F)(F)F)c(=O)c2c(C)c(CN3CCNC3=O)sc21", "note": "(racemic) [Example 294, 1-(2-Methoxyethyl)-5-methyl-6-[(2-oxoimidazolidin-1-yl)methyl]-3-[2-(trifluoromethyl)cyclopropyl]thieno[2,3-d]pyrimidine-2,4(1H,3H)-dione]", "IC50": 0.02}, {"molecule": "Cc1c(Cn2nc[nH]c2=O)sc2c1c(=O)n(C1(C)CC1)c(=O)n2CC1CC1(F)F", "note": "(single isomer, unassigned) [Example 68, 1-[(2,2-Difluorocyclopropyl)methyl]-5-methyl-3-(1-methylcyclopropyl)-6-[(5-oxo-4,5-dihydro-1H-1,2,4-triazol-1-yl)methyl]thieno[2,3-d]pyrimidine-2,4(1H,3H)-dione]", "IC50": 0.16}, {"molecule": "Cc1c(CN2CCNC2=O)sc2c1c(=O)n(C1CC1(C)C)c(=O)n2CCCF", "note": "(single isomer, unassigned) [Example 98, 3-(2,2-Dimethylcyclopropyl)-1-(3-fluoropropyl)-5-methyl-6-[(2-oxoimidazolidin-1-yl)methyl]thieno[2,3-d]pyrimidine-2,4(1H,3H)-dione]", "IC50": 0.14}, {"molecule": "Cc1c(CN2CCNC2=O)sc2c1c(=O)n([C@H]1C[C@@H]1C)c(=O)n2CC1CCO1", "note": "(single isomer, unassigned) [Example 284]", "IC50": 0.0086}, {"molecule": "Cc1c(CN2CCNC2=O)sc2c1c(=O)n(C1CC(C)(C)C1)c(=O)n2CCC(F)(F)F", "note": "[Example 164, 3-(3,3-Dimethylcyclobutyl)-5-methyl-6-[(2-oxoimidazolidin-1-yl)methyl]-1-(3,3,3-trifluoropropyl)thieno[2,3-d]pyrimidine-2,4(1H,3H)-dione]", "IC50": 0.0046}, {"molecule": "CCCCn1c(=O)n(C2CC2)c(=O)c2c(C)c(CN3CCNC3=O)sc21", "note": "[Example 3, 1-Butyl-3-cyclopropyl-5-methyl-6-[(2-oxoimidazolidin-1-yl)methyl]thieno[2,3-d]pyrimidine-2,4(1H,3H)-dione]", "IC50": 0.0069}, {"molecule": "Cc1c(Cn2nc[nH]c2=O)sc2c1c(=O)n(C1CC1)c(=O)n2CC1CCC1(F)F", "note": "(single isomer, unassigned; enantiomer 2) [Example 203, 3-Cyclopropyl-1-[(2,2-difluorocyclobutyl)methyl]-5-methyl-6-[(5-oxo-4,5-dihydro-1H-1,2,4-triazol-1-yl)methyl]thieno[2,3-d]pyrimidine-2,4(1H,3H)-dione (enantiomer 2)]", "IC50": 0.16}, {"molecule": "Cc1c(Cn2nc[nH]c2=O)sc2c1c(=O)n(C1CC1)c(=O)n2CC1CC1(F)F", "note": "(single isomer, unassigned; enantiomer 1) [Example 21, 3-Cyclopropyl-1-[(2,2-difluorocyclopropyl)methyl]-5-methyl-6-[(5-oxo-4,5-dihydro-1H-1,2,4-triazol-1-yl)methyl]thieno[2,3-d]pyrimidine-2,4(1H,3H)-dione (enantiomer 1)]", "IC50": 0.053}, {"molecule": "COCCn1c(=O)n(C2CCC2)c(=O)c2c(C)c(CN3CCNC3=O)sc21", "note": "[Example 115, 3-Cyclobutyl-1-(2-methoxyethyl)-5-methyl-6-[(2-oxoimidazolidin-1-yl)methyl]thieno[2,3-d]pyrimidine-2,4(1H,3H)-dione]", "IC50": 0.0043}, {"molecule": "Cc1c(Cn2nc[nH]c2=O)sc2c1c(=O)n([C@H]1C[C@@H]1C)c(=O)n2CC1CC(F)(F)C1", "note": "[Example 328, 1-[(3,3-Difluorocyclobutyl)methyl]-5-methyl-3-[(1S,2S)-2-methylcyclopropyl]-6-[(5-oxo-4,5-dihydro-1H-1,2,4-triazol-1-yl)methyl]thieno[2,3-d]pyrimidine-2,4(1H,3H)-dione]", "IC50": 0.0049}, {"molecule": "COCCn1c(=O)n(C2CCC2)c(=O)c2c(C)c(CN3CCNC3=NC#N)sc21", "note": "[Example 116, [1-{[3-Cyclobutyl-1-(2-methoxyethyl)-5-methyl-2,4-dioxo-1,2,3,4-tetrahydrothieno[2,3-d]pyrimidin-6-yl]methyl}imidazolidin-2-ylidene]cyanamide]", "IC50": 0.004}, {"molecule": "COCCn1c(=O)n(C2(C)CC2)c(=O)c2c(C)c(CN3CCNC3=NC#N)sc21", "note": "[Example 71, [1-{[1-(2-Methoxyethyl)-5-methyl-3-(1-methylcyclopropyl)-2,4-dioxo-1,2,3,4-tetrahydrothieno[2,3-d]pyrimidin-6-yl]methyl}imidazolidine-2-ylidene]cyanamide]", "IC50": 0.012}, {"molecule": "Cc1c(Cn2nc[nH]c2=O)sc2c1c(=O)n([C@H]1C[C@@H]1C)c(=O)n2CC1CC1(F)F", "note": "(stereo partly drawn) [Example 326, 1-[(2,2-Difluorocyclopropyl)methyl]-5-methyl-3-[(1S,2S)-2-methylcyclopropyl]-6-[(5-oxo-4,5-dihydro-1H-1,2,4-triazol-1-yl)methyl]thieno[2,3-d]pyrimidine-2,4(1H,3H)-dione]", "IC50": 0.017}, {"molecule": "Cc1c(Cn2nc[nH]c2=O)sc2c1c(=O)n(C1CC1)c(=O)n2CC1CC1(F)F", "note": "(single isomer, unassigned; enantiomer 2) [Example 22, 3-Cyclopropyl-1-[(2,2-difluorocyclopropyl)methyl]-5-methyl-6-[(5-oxo-4,5-dihydro-1H-1,2,4-triazol-1-yl)methyl]thieno[2,3-d]pyrimidine-2,4(1H,3H)-dione (enantiomer 2)]", "IC50": 0.28}, {"molecule": "Cc1c(CN2CCNC(=O)C2=O)sc2c1c(=O)n(C1CC1)c(=O)n2CC1CCCO1", "note": "(racemic) [Example 45, 3-Cyclopropyl-6-[(2,3-dioxopiperazin-1-yl)methyl]-5-methyl-1-(tetrahydrofuran-2-ylmethyl)thieno[2,3-d]pyrimidine-2,4(1H,3H)-dione]", "IC50": 0.11}, {"molecule": "Cc1c(CN2CCNC2=O)sc2c1c(=O)n(C1CC1)c(=O)n2CC1CC1(F)F", "note": "(racemic) [Example 19, 3-Cyclopropyl-1-[(2,2-difluorocyclopropyl)methyl]-5-methyl-6-[(2-oxoimidazolidin-1-yl)methyl]thieno[2,3-d]pyrimidine-2,4(1H,3H)-dione (racemate)]", "IC50": 0.019}, {"molecule": "Cc1c(Cn2cc[nH]c2=O)sc2c1c(=O)n(C1CC1)c(=O)n2CC1CC(F)(F)C1", "note": "[Example 205, 3-Cyclopropyl-1-[(3,3-difluorocyclobutyl)methyl]-5-methyl-6-[(2-oxo-2,3-dihydro-1H-imidazol-1-yl)methyl]thieno[2,3-d]pyrimidine-2,4(1H,3H)-dione]", "IC50": 0.007}, {"molecule": "Cc1c(CN2CCNC2=O)sc2c1c(=O)n(C1CC1C)c(=O)n2CC1CC(F)(F)C1", "note": "(single isomer, unassigned) [Example 253, 1-[(3,3-Difluorocyclobutyl)methyl]-5-methyl-3-(2-methylcyclopropyl)-6-[(2-oxoimidazolidin-1-yl)methyl]thieno[2,3-d]pyrimidine-2,4(1H,3H)-dione]", "IC50": 0.0027}, {"molecule": "COCCn1c(=O)n(C2CC2)c(=O)c2c(C)c(CN3CCNC(=O)C3=O)sc21", "note": "[Example 27, 3-Cyclopropyl-6-[(2,3-dioxopiperazin-1-yl)methyl]-1-(2-methoxyethyl)-5-methylthieno[2,3-d]pyrimidine-2,4(1H,3H)-dione]", "IC50": 0.04}, {"molecule": "Cc1c(Cn2nc[nH]c2=O)sc2c1c(=O)n(C1CC1)c(=O)n2CCCC(F)(F)F", "note": "[Example 201, 3-Cyclopropyl-5-methyl-6-[(5-oxo-4,5-dihydro-1H-1,2,4-triazol-1-yl)methyl]-1-(4,4,4-trifluorobutyl)thieno[2,3-d]pyrimidine-2,4(1H,3H)-dione]", "IC50": 0.053}, {"molecule": "Cc1c(CN2CCNC2=O)sc2c1c(=O)n(C1CC1C)c(=O)n2CCSC(F)(F)F", "note": "(single isomer, unassigned) [Example 280, 5-Methyl-3-(2-methylcyclopropyl)-6-[(2-oxoimidazolidin-1-yl)methyl]-1-{2-[(trifluoromethyl)sulfanyl]ethyl}thieno[2,3-d]pyrimidine-2,4(1H,3H)-dione]", "IC50": 0.0034}]}]}
